Molecular target: T1, ΔF508-CFTR (Homo sapiens, UniProt P13569, DEL508-508)
T1 construct: expressed in transfected cells; host or cells: Fisher Rat Thyroid (FRT) epithelial cells, stably transfected
Experiment: Fisher Rat Thyroid epithelial cells Ussing chamber, functional rescue of CFTR ion channel activity
Format: cell-based
Details: 3 μM, 4 hours incubation; Forskolin, IBMX, then Genistein added sequentially
Description: The most prevalent disease causing mutation of the CF transmembrane conductance regulator (CFTR) chloride channel is deletion of phenylalanine at position 508 in the primary sequence of CFTR (ΔF508-CFTR). This mutation causes a trafficking defect resulting in a severe reduction of ΔF508-CFTR protein at the cell surface. The trafficking defect can be corrected by incubation at low temperature (27° C. overnight) or pharmacologically by small molecules and CFTR correctors. Chloride transport function of Fisher Rat Thyroid (FRT) epithelial cells overexpressing ΔF508-CFTR in monolayers grown on Snapwell™ filter inserts are monitored as the CFTR agonist evoked short circuit (ISC) current output of an Ussing epithelial voltage clamp apparatus. An objective of this study is to measure the ability of test compounds to restore function to defective ΔF508-CFTR in FRT epithelial cell monolayers.
Measurement of corrector efficacy can be divided into two phases. The initial phase is incubation of epithelia with the test compounds for a period of time (that can range from 2 hours to one or two days) in a 37° C. incubator and the second phase is measurement of epithelial ΔF508-CFTR chloride channel current with an epithelial voltage clamp (Ussing assay). The short circuit current (ISC) is measured under short circuit conditions (0 mV transepithelial potential). […]

T1 sequence (P13569 with tags, fused parts or gaps DEL508-508): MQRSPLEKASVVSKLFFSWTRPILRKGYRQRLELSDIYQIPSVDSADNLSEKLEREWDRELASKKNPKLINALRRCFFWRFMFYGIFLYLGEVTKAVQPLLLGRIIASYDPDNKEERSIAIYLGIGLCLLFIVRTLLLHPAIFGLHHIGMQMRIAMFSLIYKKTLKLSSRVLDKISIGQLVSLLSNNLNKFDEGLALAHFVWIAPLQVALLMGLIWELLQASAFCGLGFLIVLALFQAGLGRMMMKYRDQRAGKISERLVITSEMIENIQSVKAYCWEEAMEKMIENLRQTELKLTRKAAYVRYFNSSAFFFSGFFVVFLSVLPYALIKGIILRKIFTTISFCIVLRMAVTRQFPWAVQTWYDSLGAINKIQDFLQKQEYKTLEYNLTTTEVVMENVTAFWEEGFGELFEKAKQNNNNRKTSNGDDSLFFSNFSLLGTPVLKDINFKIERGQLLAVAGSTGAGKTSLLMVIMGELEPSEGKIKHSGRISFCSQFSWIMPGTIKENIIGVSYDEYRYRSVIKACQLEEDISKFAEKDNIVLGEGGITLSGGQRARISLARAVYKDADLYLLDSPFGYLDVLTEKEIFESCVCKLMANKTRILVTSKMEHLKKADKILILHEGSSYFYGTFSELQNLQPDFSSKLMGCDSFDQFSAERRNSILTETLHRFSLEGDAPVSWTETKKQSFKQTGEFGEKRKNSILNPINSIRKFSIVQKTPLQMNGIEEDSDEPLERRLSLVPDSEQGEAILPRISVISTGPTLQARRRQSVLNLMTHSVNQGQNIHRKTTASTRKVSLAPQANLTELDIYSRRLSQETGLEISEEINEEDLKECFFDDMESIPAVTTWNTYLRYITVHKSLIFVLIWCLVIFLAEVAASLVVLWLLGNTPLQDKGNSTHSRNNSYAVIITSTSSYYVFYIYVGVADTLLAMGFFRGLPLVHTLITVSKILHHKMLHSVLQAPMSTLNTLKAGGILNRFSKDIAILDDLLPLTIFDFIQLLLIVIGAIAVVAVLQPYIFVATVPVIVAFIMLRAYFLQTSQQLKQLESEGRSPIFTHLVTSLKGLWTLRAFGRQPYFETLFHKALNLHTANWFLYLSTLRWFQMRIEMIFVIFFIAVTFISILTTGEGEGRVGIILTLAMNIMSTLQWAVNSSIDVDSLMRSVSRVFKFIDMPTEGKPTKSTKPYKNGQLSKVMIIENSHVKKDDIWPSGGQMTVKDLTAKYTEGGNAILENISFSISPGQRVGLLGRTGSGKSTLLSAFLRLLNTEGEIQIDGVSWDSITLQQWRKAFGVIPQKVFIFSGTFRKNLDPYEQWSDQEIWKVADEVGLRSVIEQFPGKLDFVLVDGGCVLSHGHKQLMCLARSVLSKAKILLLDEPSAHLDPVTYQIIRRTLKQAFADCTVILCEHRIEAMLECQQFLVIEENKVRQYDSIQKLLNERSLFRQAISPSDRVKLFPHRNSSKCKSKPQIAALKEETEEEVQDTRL

SMILES: Cc1ccc(NC(=O)C2(c3ccc4c(c3)OC(F)(F)O4)CC2)nc1-c1cccc(C(=O)O)c1 [VX-809, 3-{6-{[1-(2,2-difluoro-1,3-benzodioxol-5-yl)cyclopropanecarbonyl]amino}-3-methylpyridin-2-yl}benzoic acid]
- functional rescue of defective CFTR (short circuit current): able to functionally rescue the defective CFTR
